# Assay results from US20210052512A1, “CANNABIDIOL PREPARATIONS AND ITS USES” (GW Research Limited, priority 2018, published 2021).
# What was measured:
# [1] = system: human iPSC derived cerebral cortical neural stem/progenitor cells (hNSCs); assay: Neurogenesis and neuronal differentiation of hNSCs (MAP2+ cell count, immunohistochemistry); format: cell-based; settings: for Mean % MAP2+ cells (3 days): 3 days incubation; for Mean % MAP2+ cells (3 days) / Mean % MAP2+ cells (5 days): hNSCs; for Mean % MAP2+ cells (5 days): 5 days incubation
# Description: Human iPSC-derived cerebral cortical neural stem cells (hNSCs) (Axol Bioscience Inc., UK) were cultured as monolayers at a density of 1.0×10^4 cells/cm^2 on 100 mm diameter Petri dishes. The cells were collected from their original cryovial, suspended in Plating-XF Medium and plated on Petri dishes coated with SureBondXF 1× working solution prepared in D-PBS (without calcium or magnesium). hNSCs were incubated at 37° C. and 5% CO2 and 24 hours after of incubation, the plating medium was replaced with fresh Neural Expansion-XF Medium supplemented with the growth factors Recombinant Human EGF and Recombinant Human FGF2 (final concentration of 20 ng/mL (1×) of FGF2 and EGF). The cultures were re-fed with fresh Neural Expansion-XF supplemented with EGF and FGF2 every two days. When the hNSCs reached approximately 80% confluence, they were prepared for treatment. Pre-warmed Axol Unlock-XF was used to detach the cells and after 3 minutes of incubation the cells were re-suspended in Neural Expansion-XF Medium supplemented with EGF and FGF2. The cells (1×10^4 cells/cm^2) were then plated in Petri dishes coated with SureBondXF 1× and after 2 hours the medium was replaced with fresh Neural Expansion-XF supplemented with EGF and FGF2.
# hNSCs cultured as described above were plated at a density of 1×10^4 cells/cm^2 on SureBondXF-coated coverslips in the presence of botanically derived purified CBD; synthetic CBD; or vehicle diluted in the Neural Differentiation-XF Medium (DM, without growth factors) for 3-5 days at 37° C. in a 5% CO2/95% air atmosphere.
# Cannabinoids were dissolved in 95% (v/v) ethanol and added to the medium to obtain final concentrations of 0.1 or 1 μM CBD.
# Ethanol was added to the vehicle-treated cells for the whole differentiation period of 3-5 days wherein the final concentration was never higher than 0.05% (v/v).
# In order to perform immunohistochemistry, the cells were fixed with 4% (w/v) paraformaldehyde. Nonspecific binding was blocked with 10% (v/v) fetal bovine serum and 0.1% (v/v) Triton X-100 and incubated with primary antibodies: mouse anti-Map2ab (Sigma-Aldrich; 1:200) and rabbit anti-GFAP (DAKO; 1:200) or rabbit anti-Gap43 (Synaptic System; 1:300 at room temperature for 4 hours. Secondary antibodies—anti-mouse Alexa594 (Life Technologies; 1:100) and anti-rabbit Alexa488 (Life Technologies; 1:100)—were used for immunofluorescence. Cells were then counterstained with DAPI, washed with PBS and cover slipped with Aquatex mounting medium (Merck, Darmstadt, Germany). The immunofluorescence was studied with an epifluorescence microscope (Leica AF6000) equipped with the appropriate filter and then acquired using a digital camera (Leica, DFC 340) connected to the microscope and image analysis software (Leica, LAS AF). No immunoreactivity was found in the samples processed for the control of specificity of each primary antibody used in the study, which was performed by omitting the primary antibody before adding the appropriate secondary antibody.
# Digital Leica LAS AF 2.2.0 software (Live Data Mode system) was used for counting Map2ab+DAPI+ cells. […] For each experimental condition, cells from 3 different tubes were each analyzed in triplicate and 3 frames were collected at 20× magnification. Data were analyzed with GraphPad Prism 6 software, version 6.05 (GraphPad, Inc.) and are expressed as mean±SEM. Statistical differences among groups were determined by two-way ANOVA followed by post hoc Bonferroni tests for comparison among means. […]
# [2] = system: human iPSC derived cerebral cortical neural stem/progenitor cells (hNSCs); assay: Axonal outgrowth and neuronal differentiation of hNSCs (GAP43 immunocytochemistry); format: cell-based; settings: 1 μM
# Description: Human iPSC-derived cerebral cortical neural stem cells (hNSCs) (Axol Bioscience Inc., UK) were cultured as monolayers at a density of 1.0×10^4 cells/cm^2 on 100 mm diameter Petri dishes. The cells were collected from their original cryovial, suspended in Plating-XF Medium and plated on Petri dishes coated with SureBondXF 1× working solution prepared in D-PBS (without calcium or magnesium). hNSCs were incubated at 37° C. and 5% CO2 and 24 hours after of incubation, the plating medium was replaced with fresh Neural Expansion-XF Medium supplemented with the growth factors Recombinant Human EGF and Recombinant Human FGF2 (final concentration of 20 ng/mL (1×) of FGF2 and EGF). The cultures were re-fed with fresh Neural Expansion-XF supplemented with EGF and FGF2 every two days. When the hNSCs reached approximately 80% confluence, they were prepared for treatment. Pre-warmed Axol Unlock-XF was used to detach the cells and after 3 minutes of incubation the cells were re-suspended in Neural Expansion-XF Medium supplemented with EGF and FGF2. The cells (1×10^4 cells/cm^2) were then plated in Petri dishes coated with SureBondXF 1× and after 2 hours the medium was replaced with fresh Neural Expansion-XF supplemented with EGF and FGF2. […]
# [3] = system: MES-induced tonic seizures; assay: Maximal electroshock seizure (MES) test; format: in vivo, mice; settings: for HED - mg (human equivalent dose): converted to HED of 10 mg/kg, assuming 60 kg human
# Description: This study was performed using male C57Bl6 mice, weighing between 23.6-31.2 g, which were purchased from a licensed breeder (Charles River, UK). Naïve mice were acclimatized to the procedure room in their home cages, with food and water available ad libitum. Animals were housed in groups of 2-3, in standard caging on a 12 hr/12 hr light-dark cycle. All animals were tail marked and weighed at the beginning of the study. Animals were randomly assigned to vehicle or treatment groups.
# The following drugs were used in this study: synthetic CBD (SYN) and botanically derived purified CBD (BOT). The control vehicle used was (1:1:18), which was 5% Ethanol, 5% Kolliphor, 90% saline, and has been used extensively throughout similar seizure tests. All drugs were dissolved in the control vehicle for comparison. Animals were dosed (10 ml/kg) i.p. at 60 minutes prior to the administration of the maximal electroshock seizure (MES) test. In addition to the vehicle group, the dosage groups used for each treatment and included doses of 10, 50, 100 (Experiment 1 only), 150 and 200 mg/kg for CBD (SYN) and CBD (BOT). The number of animals in each of these groups were 10 (n=10).
# Two separate experiments were undertaken using two different batches of the botanically derived purified CBD. In the first experiment the concentration of THC in botanically derived purified CBD was 0.02% THC (w/w) whereas in the second experiment the concentration of THC in the botanically derived purified CBD was approximately 0.1% THC (w/w).
# The protective activity of CBD (SYN) and CBD (BOT) was evaluated and expressed as effective doses (ED50 in mg/kg), protecting 50% of mice against MES-induced tonic seizures. Electroconvulsions were produced by a fixed current intensity of 30 mA and corneally delivered electroshock (0.2 second duration). Mice were individually assessed for seizures following this pre-determined high level (30 mA) corneally delivered electroshock of sufficient intensity to reliably produce tonic hind limb extension seizures in 100% of control animals. […]
# [4] = system: sub-chronic PCP-induced deficit in novel object recognition; assay: Novel object recognition (NOR) test after sub-chronic PCP; format: in vivo, rats
# Description: Female hooded-Lister rats were used for this experiment. Rats were housed in groups of 5 under standard laboratory conditions under a 12 hr light: dark cycle, with lights on at 0700 hr. Testing was carried out in the light phase. Rats were randomly assigned to two treatment groups and treated with vehicle, n=20 (distilled water, i.p.) or Phencyclidine hydrochloride (PCP), n=100 (2 mg/kg, i.p. twice daily for 7-days). PCP was dissolved in distilled water. This was followed by a 7-day wash out period before the rats were tested following acute treatment with CBD, risperidone or vehicle.
# Risperidone (0.1 mg/kg) was dissolved in a minimum volume of acetic acid, made up to volume with distilled water and pH adjusted to 6 with 0.1M NaOH and administered via the i.p. route in a volume of 1 ml/kg, 120 minutes prior to testing.
# Botanically derived purified CBD was tested at 2, 10, 20 or 100 mg/kg and was dissolved in 2:1:17 (Ethanol:Cremofor:Saline 0.9%) and administered via the i.p. route in a volume of 5 ml/kg, 60 minutes prior to testing. The THC concentration in the botanically derived purified CBD was 0.03% (w/w) THC.
# Synthetic CBD at 1, 2, 5, 10 or 20 mg/kg was dissolved in 2:1:17 (Ethanol:Cremofor:Saline 0.9%) and administered via the i.p. route in a volume of 5 ml/kg, 120 minutes prior to testing.
# Rats were allowed to habituate to the empty test box and the behavioral test room environment for one hour on day 1. Prior to behavioral testing on day 2, rats were given a further 3 minute habituation.
# Following the 3 minute habituation period, the rats are given two 3 minute trials (T1 and T2) which were separated by a 1 minute inter-trial interval in the home cage during which the objects were changed. Behavior in all trials was recorded on video for subsequent blind scoring.
# In the acquisition trial (T1), the animals were allowed to explore two identical objects (A1 and A2) for 3 minutes. In the retention trial (T2), the animals were allowed to explore a familiar object (A) from T1 and a novel object (B) for 3 minutes. […]
# The exploration time(s) of each object (A, B, familiar and novel) in each trial were recorded using two stopwatches and the following factors were calculated: total exploration time of both objects in the acquisition trial, total exploration time of both objects in the retention trial. Habituation of exploratory activity included the exploration time, as measured by the number of lines crossed, for both trials.
# All data were assessed for normality using D'Agostino and Pearson normality test. Data non-normally distributed were analyzed using Kruskal-Wallis followed by planned comparisons with Dunn's correction. Normally distributed data were analyzed using one-way ANOVA followed by planned comparisons with Sidak's correction. […]
structure (smiles),measurement,setting,value
"C=C(C)[C@@H]1CCC(C)=C[C@H]1c1c(O)cc(CCCCC)cc1O [Synthetic CBD, 2-[(1R,6R)-3-Methyl-6-(1-methylethenyl)-2-cyclohexen-1-yl]-5-pentyl-1,3-benzenediol]",Mean % MAP2+ cells (3 days),[1]; 0.1 μM,4.87 ± 0.1%
same,Mean % MAP2+ cells (5 days),[1]; 0.1 μM,6.02 ± 0.3%
same,Mean % MAP2+ cells (3 days),[1]; 1 μM,6.11 ± 0.3%
same,Mean % MAP2+ cells (5 days),[1]; 1 μM,7.09 ± 0.1%
same,Effect on neurogenesis and neuronal differentiation of hNSCs (in words),"[1]; 0.1 and 1 μM, 3 or 5 days, relative to vehicle-treated cells",did not have a significant effect
same,Mean % GAP43+ cells (3 days),[2]; 3 days incubation,8.40 ± 2.0%
same,Mean % GAP43+ cells (5 days),[2]; 5 days incubation,9.15 ± 1.6%
same,HED - mg (human equivalent dose),[3]; Experiment 1,600.0 mg
same,ED50 protecting 50% of mice against MES-induced tonic seizures,"[3]; Experiment 1, i.p. 60 minutes prior to MES, sigmoidal curve - constant top, listed as CBD (SYN)",77.60 mg/kg
same,HED - mg (human equivalent dose),[3]; Experiment 2,600.0 mg
same,human daily amount equivalent to the rat MED,[4]; 70 kg human,112 mg/day
same,amount of CBD required in a human relative to botanically derived purified CBD,[4]; from difference in MED,five times the amount of CBD
same,human equivalent dose of the rat MED,[4]; rat dose multiplied by 0.16 (FDA dose conversion guidance),1.6 mg/kg/day
same,minimal effective dose (MED) attenuating sub-chronic PCP-induced deficit in novel object recognition,"[4]; rats, i.p., 120 min ppt",10 mg/kg
